Source: patent US8183287B2, “Pharmaceutical formulations and compositions of a selective antagonist of either CXCR2 or both CXCR1 and CXCR2 and methods of using the same for treating inflammatory disorders” (Schering Corporation, priority 2006, dated 2012)
Like-named read-outs stand apart in the source and are kept apart here.

Tests used:
[1] = tested on: neutrophil recruitment to the lungs; assay: neutrophil recruitment to the lungs in response to challenge, oral dosing; assay type: in vivo; conditions: orally administered
From the text: (§1) WO 02/083624 describes this compound (as Examples 360.31 and 405), process of making the same, as well as treatment of chemokine-related diseases and cancer using the same. Likewise, WO 03/080053 describes the treatment of chemokine-related diseases using this compound.

[2] = tested on: neutrophil recruitment to the pleural cavities; assay: neutrophil recruitment to the pleural cavities in response to challenge, oral dosing; assay type: in vivo; conditions: orally administered
From the text: as §1

[3] = tested on: carrageenan-induced paw edema; assay: carrageenan-induced paw edema; assay type: in vivo; conditions: rats, compared with NSAIDs
From the text: as §1

[4] = tested on: pulmonary mucin production; assay: pulmonary mucin production, prolonged treatment; assay type: in vivo
From the text: as §1

[5] = tested on: histological changes in arthritic joints; assay: histological changes in arthritic joints, prolonged treatment; assay type: in vivo; conditions: rats
From the text: as §1

[6] = clinical study (i): single-dose oral pharmacokinetics, Formulation 1 capsules; assay type: in vivo, human; conditions: for AUC / Cmax / Tmax / half-life: both sexes, human, plasma; for AUC: po; for AUC / Cmax / Tmax / half-life / Tf Mean: healthy subjects; for Tmax: read-out: Tmax Median; for half-life: read-out: t1/2 Mean (converted)
[7] = clinical study (ii): single-dose 30 mg, fasted or fed subjects, Formulation 1 capsules; assay type: in vivo, human; conditions: single oral dose 30 mg; for Cmax / AUC / half-life / Tmax: both sexes, human, plasma, po, 30 mg; for Cmax / AUC / half-life / Tmax / Tf Mean: healthy subjects; for half-life: read-out: t1/2 Mean; for Tmax: read-out: Tmax Median
[8] = clinical study (iii): multiple-dose oral pharmacokinetics, Formulation 1 capsules; assay type: in vivo, human; conditions: for AUC(0-t): read-out: AUC (0-24 hr) Mean; for Tmax: read-out: Tmax Median
[9] = clinical study in subjects with severe neutrophilic asthma; assay type: in vivo, human; conditions: 12 weeks
Procedure: This study, illustrated schematically in FIG. 5, is a randomized, double-blind, placebo-controlled study in subjects with severe neutrophilic asthma.
Safety is assessed after approximately 30 subjects have completed 2 weeks of treatment in DRF. Variables include the effect on sputum neutrophils, PBNs, adverse events (AEs) and other safety data.
Primary Efficacy Endpoint: The primary efficacy endpoint is the asthma exacerbation status (‘yes’ for presence of an exacerbation, ‘no’ for absence) during the 12-week treatment period.

[10] = clinical study in subjects with severe psoriasis; assay type: in vivo, human; conditions: 28 days
Procedure: This study, illustrated schematically in FIG. 6A, was designed as a prospective, randomized, double-blind, placebo-controlled, parallel-group study in subjects with moderate to severe psoriasis.
Each treatment is administered for 28 days. After twelve patients have completed dosing, a determination is made on the progression of the study as outlined in FIG. 6B.
Clinical Assessment. At Screening, Baseline, and Days 1, 8, 15, 29, 36, and 57 the clinical psoriasis activity (PASI and physician global assessment) is determined for each patient.
Efficacy Analyses: The primary efficacy endpoint is the response defined as a ≧50% decrease from baseline in the PASI at the end of 28 days of treatment as well as PGA. The data for the secondary endpoints detailed below are listed and summarized by treatment group using descriptive statistics. Specifically, • percent reduction on Day 28 relative to baseline of psoriatic plaque cellularity, with subpopulation analysis of neutrophils (CD50, Cathepsin G) and T-lymphocytes (CD3+, CD4+, CD8+) • change from baseline in mRNA expression of Gro-α, IL-8, and CXCR2 in the psoriatic plaque and peripheral blood • change from baseline in plasma chemokine concentrations including Gro-α and IL-8

[11] = both, human, in vivo
clinical = conditions: both, human
[12] = single oral dose 150 mg (+Filgrastim 300 μg)
[13] = both sexes, human, plasma, oral, 10 mg, multiple-dose 10 mg, Day 1
[14] = both sexes, human, plasma, oral, 10 mg, multiple-dose 10 mg, Day 14
[15] = both sexes, human, plasma, oral, 30 mg, multiple-dose 30 mg, Day 1
[16] = both sexes, human, plasma, oral, 30 mg, multiple-dose 30 mg, Day 14
[17] = both sexes, human, plasma, oral, 50 mg, multiple-dose 50 mg, Day 1
[18] = both sexes, human, plasma, oral, 50 mg, multiple-dose 50 mg, Day 14

CC[C@@H](Nc1c(Nc2cccc(C(=O)N(C)C)c2O)c(=O)c1=O)c1ccc(C)o1 [Compound I]
neutrophil recruitment to the lungs ([1]; mice): effectively blocks | neutrophil recruitment to the lungs ([1]; monkeys): effectively blocks | neutrophil recruitment to the lungs ([1]; rats): effectively blocks | neutrophil recruitment to the pleural cavities ([2]; mice): effectively blocks | neutrophil recruitment to the pleural cavities ([2]; rats): effectively blocks | ability to inhibit carrageenan-induced paw edema [3]: compares very favorably with NSAIDs | pulmonary mucin production ([4]; mice): blocks | pulmonary mucin production ([4]; rats): blocks | histological changes in arthritic joints [5]: blocks | effect of 300 μg filgrastim on the pharmacokinetic profile ([6]; 150 mg Compound I followed by filgrastim): did not alter the pharmacokinetic profile | AUC ([6]; 10 mg, single oral dose 10 mg, read-out: AUC (tf) Mean): 162 ng·h/mL | AUC ([6]; 50 mg, single oral dose 50 mg, n = 4, read-out: AUC(I) Mean): 768 ng·h/mL | AUC ([6]; 50 mg, single oral dose 50 mg, read-out: AUC (tf) Mean): 665 ng·h/mL | AUC ([6]; 100 mg, single oral dose 100 mg, read-out: AUC (tf) Mean): 827 ng·h/mL | AUC ([6]; 100 mg, single oral dose 100 mg, read-out: AUC(I) Mean): 878 ng·h/mL | AUC ([6]; 150 mg, single oral dose 150 mg, read-out: AUC (tf) Mean): 1530 ng·h/mL | AUC ([6]; 150 mg, single oral dose 150 mg, read-out: AUC(I) Mean): 1640 ng·h/mL | AUC ([6]; 200 mg, single oral dose 200 mg, read-out: AUC (tf) Mean): 1730 ng·h/mL | AUC ([6]; 200 mg, single oral dose 200 mg, read-out: AUC(I) Mean): 1810 ng·h/mL | AUC ([6]; single oral dose 150 mg (+Filgrastim 300 μg), read-out: AUC (tf) Mean): 1320 ng·h/mL | AUC ([6]; single oral dose 150 mg (+Filgrastim 300 μg), read-out: AUC(I) Mean): 1380 ng·h/mL | Cmax ([6]; single oral dose 10 mg): 73.8 ng/mL | Tmax ([6]; single oral dose 10 mg): 60 min | Cmax ([6]; single oral dose 50 mg): 153 ng/mL | half-life ([6]; single oral dose 50 mg, n = 4): 948 min | Tmax ([6]; single oral dose 50 mg): 45 min | Cmax ([6]; single oral dose 100 mg): 261 ng/mL | Tmax ([6]; single oral dose 100 mg): 45 min | half-life ([6]; single oral dose 100 mg): 708 min | Cmax [6, 12]: 292 ng/mL | Tmax [6, 12]: 45 min | half-life [6, 12]: 780 min | Cmax ([6]; single oral dose 150 mg): 364 ng/mL | Tmax ([6]; single oral dose 150 mg): 45 min | half-life ([6]; single oral dose 150 mg): 1000 min | Cmax ([6]; single oral dose 200 mg): 416 ng/mL | Tmax ([6]; single oral dose 200 mg): 37.5 min | half-life ([6]; single oral dose 200 mg): 678 min | increase of Cmax and AUC with dose ([6]; from 10 to 200 mg): dose-related, but not dose-proportional | Tf Mean ([6]; single oral dose 10 mg): 14 h | Tf Mean ([6]; single oral dose 50 mg): 46 h | Tf Mean ([6]; single oral dose 100 mg): 38 h | Tf Mean [6, 12]: 58 h | Tf Mean ([6]; single oral dose 150 mg): 64 h | Tf Mean ([6]; single oral dose 200 mg): 52 h | Cmax ([7]; fasted): 147 ng/mL | AUC ([7]; fasted, n = 10, read-out: AUC(I) Mean): 563 ng·h/mL | half-life ([7]; fasted, n = 10): 1250 min | AUC ([7]; fasted, read-out: AUC (tf) Mean): 484 ng·h/mL | Tmax ([7]; fasted): 45 min | Cmax ([7]; fed): 122 ng/mL | AUC ([7]; fed, n = 7, read-out: AUC(I) Mean): 572 ng·h/mL | half-life ([7]; fed, n = 7): 1370 min | AUC ([7]; fed, read-out: AUC (tf) Mean): 489 ng·h/mL | Tmax ([7]; fed): 120 min | mean Cmax with food lower than Compound I alone [7]: 17% | Tf Mean ([7]; fasted): 40 h | Tf Mean ([7]; fed): 32.3 h | Cmax [8, 13]: 76 ng/mL | AUC(0-t) [8, 13]: 137 ng·h/mL | Tmax [8, 13]: 30 min | Cmax [8, 14]: 78.1 ng/mL | AUC(0-t) [8, 14]: 156 ng·h/mL | Tmax [8, 14]: 30 min | Cmax [8, 15]: 173 ng/mL | AUC(0-t) [8, 15]: 397 ng·h/mL | Tmax [8, 15]: 30 min | Cmax [8, 16]: 159 ng/mL | AUC(0-t) [8, 16]: 414 ng·h/mL | Tmax [8, 16]: 30 min | Cmax [8, 17]: 239 ng/mL | AUC(0-t) [8, 17]: 681 ng·h/mL | Tmax [8, 17]: 45 min | Cmax [8, 18]: 279 ng/mL | AUC(0-t) [8, 18]: 825 ng·h/mL | Tmax [8, 18]: 30 min | half-life ([8]; both sexes, human, plasma, oral, multiple-dose 50 mg, Day 14, n = 7, read-out: t1/2 Mean (converted)): 828 min | steady state achieved by ([8]; multiple doses): ≤ 11 days | asthma exacerbation [9]: reduction in asthma exacerbation | PASI [10]: reduction in PASI | Median max values [11]: 0.5 to 2 h | Vd/F (clinical; in vivo): 1470 to 2200 L | half-life (clinical; plasma, oral): 678 to 1370 min
